Reference: ChEMBL document CHEMBL2069196, “Synthesis and evaluation of novel 4-[(3H,3aH,6aH)-3-phenyl)-4,6-dioxo-2-phenyldihydro-2H-pyrrolo[3,4-d]isoxazol-5(3H,6H,6aH)-yl]benzoic acid derivatives as potent acetylcholinesterase inhibitors and anti-amnestic agents” (Bioorg Med Chem, 2012)
Calls of active or inactive are those of the source. The calls are words filed in the database; no cut-off is given here.

These compounds were tested on Mus musculus (assay: Antiamnesic activity in mouse assessed as inhibition of scopolamine-induced escape latency time at 2 mg/kg, ip measured on day 4 by Morris water maze test (reference value: 78.7 +/- 5.7 secs)). Details: route intraperitoneal.
Format: functional

Structure (SMILES)	Time [s]
COc1ccc([C@H]2[C@H]3C(=O)N(c4ccc(C(=O)O)cc4)C(=O)[C@H]3ON2c2ccc(C)cc2)cc1 (relative stereo)	74.8

The compounds below were run against Butyrylcholinesterase (Rattus norvegicus, UniProt Q9JKC1) (assay: Inhibition of BuChE activity in rat plasma using […] as substrate by Ellman's method). Details: not given.
Format: cell-free

Sequence of Butyrylcholinesterase (Q9JKC1 whole entry): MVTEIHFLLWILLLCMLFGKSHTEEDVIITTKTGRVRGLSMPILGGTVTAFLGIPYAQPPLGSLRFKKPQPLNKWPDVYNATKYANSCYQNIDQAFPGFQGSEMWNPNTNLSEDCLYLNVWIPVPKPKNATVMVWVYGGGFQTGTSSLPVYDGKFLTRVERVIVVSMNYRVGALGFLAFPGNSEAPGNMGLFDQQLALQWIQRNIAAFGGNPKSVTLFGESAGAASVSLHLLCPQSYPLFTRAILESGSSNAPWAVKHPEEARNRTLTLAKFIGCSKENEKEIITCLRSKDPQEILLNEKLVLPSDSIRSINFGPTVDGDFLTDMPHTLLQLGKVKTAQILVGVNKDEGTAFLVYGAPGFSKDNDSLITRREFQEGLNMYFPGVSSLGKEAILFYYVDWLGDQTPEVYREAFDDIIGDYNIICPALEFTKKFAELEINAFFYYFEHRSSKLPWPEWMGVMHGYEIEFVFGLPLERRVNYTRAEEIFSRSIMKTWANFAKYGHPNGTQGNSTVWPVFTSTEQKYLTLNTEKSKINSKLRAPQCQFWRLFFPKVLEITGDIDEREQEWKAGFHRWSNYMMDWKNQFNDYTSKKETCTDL

Structure (SMILES)	IC50 [nM]
COc1ccc([C@H]2[C@H]3C(=O)N(c4ccc(C(=O)O)cc4)C(=O)[C@H]3ON2c2ccc(C)cc2)cc1 (relative stereo)	15300

The compounds below were run on Mus musculus (assay: Antiamnesic activity in mouse assessed as inhibition of scopolamine-induced escape latency time at 10 mg/kg, ip measured on day 4 by Morris water maze test (reference value: 78.7 +/- 5.7 secs)). Details: route intraperitoneal.
Format: functional

Structure (SMILES)	Time [s]
COc1ccc([C@H]2[C@H]3C(=O)N(c4ccc(C(=O)O)cc4)C(=O)[C@H]3ON2c2ccc(C)cc2)cc1 (relative stereo)	49.1

These compounds were tested on Mus musculus (assay: Antiamnesic activity in scopolamine-induced amnesia mouse model assessed as increase in time spent in target quadrant at 5 mg/kg, ip measured on day 5 by Morris water maze test). Details: not given.
Format: functional, organism-based
Parameters: dose 5 mg/kg

Structure (SMILES)	Activity
COc1ccc([C@H]2[C@H]3C(=O)N(c4ccc(C(=O)O)cc4)C(=O)[C@H]3ON2c2ccc(C)cc2)cc1 (relative stereo)	Active

Each compound was assayed on Mus musculus (assay: Antiamnesic activity in scopolamine-induced amnesia mouse model assessed as increase in time spent in target quadrant at 25 mg/kg, ip measured on day 5 by Morris water maze test). Details: not given.
Format: functional, organism-based
Parameters: dose 25 mg/kg

Structure (SMILES)	Activity
COc1cc2c(cc1OC)C(=O)C(CC1CCN(Cc3ccccc3)CC1)C2 (centres undefined)	Active

These compounds were tested on Mus musculus (assay: Antiamnesic activity in mouse assessed as inhibition of scopolamine-induced escape latency time at 2 mg/kg, ip measured on day 1 by Morris water maze test (reference value: 89.7 +/- 3.8 secs)). Details: route intraperitoneal.
Format: functional

Structure (SMILES)	Time [s]
COc1ccc([C@H]2[C@H]3C(=O)N(c4ccc(C(=O)O)cc4)C(=O)[C@H]3ON2c2ccc(C)cc2)cc1 (relative stereo)	83.7

Each compound was assayed on Mus musculus (assay: Antiamnesic activity in mouse assessed as inhibition of scopolamine-induced escape latency time at 10 mg/kg, ip measured on day 1 by Morris water maze test (reference value: 89.7 +/- 3.8 secs)). Details: route intraperitoneal.
Format: functional

Structure (SMILES)	Time [s]
COc1ccc([C@H]2[C@H]3C(=O)N(c4ccc(C(=O)O)cc4)C(=O)[C@H]3ON2c2ccc(C)cc2)cc1 (relative stereo)	81.2

The compounds below were run on Mus musculus (assay: Antiamnesic activity in scopolamine-induced amnesia mouse model assessed as increase in time spent in target quadrant at 10 mg/kg, ip measured on day 5 by Morris water maze test). Details: not given.
Format: functional, organism-based
Parameters: dose 10 mg/kg

Structure (SMILES)	Activity
COc1ccc([C@H]2[C@H]3C(=O)N(c4ccc(C(=O)O)cc4)C(=O)[C@H]3ON2c2ccc(C)cc2)cc1 (relative stereo)	Active

Each compound was assayed against T1, Acetylcholinesterase (Rattus norvegicus, UniProt P37136) (assay: Inhibition of AChE activity in rat brain homogenate using acetylthiocholine as substrate by Ellman's method). Details: not given.
T1 sequence (P37136 whole entry): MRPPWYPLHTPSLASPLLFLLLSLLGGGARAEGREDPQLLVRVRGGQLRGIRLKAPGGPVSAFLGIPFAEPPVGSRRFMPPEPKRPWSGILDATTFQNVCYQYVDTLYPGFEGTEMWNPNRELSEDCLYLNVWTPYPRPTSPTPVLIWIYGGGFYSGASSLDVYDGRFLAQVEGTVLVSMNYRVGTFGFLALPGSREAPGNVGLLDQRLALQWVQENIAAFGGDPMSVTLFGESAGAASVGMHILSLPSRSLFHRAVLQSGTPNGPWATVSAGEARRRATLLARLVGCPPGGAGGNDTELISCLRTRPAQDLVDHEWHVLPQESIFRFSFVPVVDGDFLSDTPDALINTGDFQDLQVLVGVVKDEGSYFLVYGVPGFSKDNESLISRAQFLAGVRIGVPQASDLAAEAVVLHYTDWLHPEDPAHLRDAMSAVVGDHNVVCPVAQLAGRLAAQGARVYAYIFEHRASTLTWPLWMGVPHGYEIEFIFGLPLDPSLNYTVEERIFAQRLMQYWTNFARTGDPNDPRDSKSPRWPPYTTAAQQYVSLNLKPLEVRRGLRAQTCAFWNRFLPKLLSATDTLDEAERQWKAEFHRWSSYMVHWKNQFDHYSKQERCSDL
Format: tissue-based

Structure (SMILES)	IC50 [nM]
Cc1ccc(N2O[C@H]3C(=O)N(c4ccc(C(=O)O)cc4)C(=O)[C@H]3[C@@H]2c2ccc(O)cc2)cc1 (relative stereo)	22.5
O=C(O)c1ccc(N2C(=O)[C@@H]3[C@@H](ON(c4ccccc4)[C@H]3c3ccccc3[N+](=O)[O-])C2=O)cc1 (relative stereo)	26.9
Cc1ccc(N2O[C@H]3C(=O)N(c4ccc(C(=O)O)cc4)C(=O)[C@H]3[C@@H]2c2cccc(Cl)c2)cc1 (relative stereo)	23.8
O=C(O)c1ccc(N2C(=O)[C@@H]3[C@@H](ON(c4ccccc4)[C@H]3c3ccccc3O)C2=O)cc1 (relative stereo)	24.8
Cc1ccc(N2O[C@@H]3C(=O)N(c4ccc(C(=O)O)cc4)C(=O)[C@@H]3[C@@H]2c2cccc(Cl)c2)cc1 (relative stereo)	22.2
Cc1ccc(N2O[C@H]3C(=O)N(c4ccc(C(=O)O)cc4)C(=O)[C@H]3[C@@H]2c2ccc([N+](=O)[O-])cc2)cc1	24.1
O=C(O)c1ccc(N2C(=O)[C@H]3[C@H](ON(c4ccccc4)[C@H]3c3ccccc3[N+](=O)[O-])C2=O)cc1 (relative stereo)	26.1
COc1cccc([C@H]2[C@@H]3C(=O)N(c4ccc(C(=O)O)cc4)C(=O)[C@@H]3ON2c2ccc(C)cc2)c1 (relative stereo)	19.9
COc1ccccc1[C@H]1[C@@H]2C(=O)N(c3ccc(C(=O)O)cc3)C(=O)[C@@H]2ON1c1ccccc1 (relative stereo)	20.6
COc1cccc([C@H]2[C@H]3C(=O)N(c4ccc(C(=O)O)cc4)C(=O)[C@H]3ON2c2ccc(C)cc2)c1 (relative stereo)	18.8
COc1ccccc1[C@H]1[C@@H]2C(=O)N(c3ccc(C(=O)O)cc3)C(=O)[C@@H]2ON1c1ccc(C)cc1 (relative stereo)	20.2
COc1cccc([C@H]2[C@H]3C(=O)N(c4ccc(C(=O)O)cc4)C(=O)[C@H]3ON2c2ccccc2)c1 (relative stereo)	19.1
Cc1ccc(N2O[C@H]3C(=O)N(c4ccc(C(=O)O)cc4)C(=O)[C@H]3[C@@H]2c2ccccc2[N+](=O)[O-])cc1 (relative stereo)	25.2
Cc1ccc(N2O[C@@H]3C(=O)N(c4ccc(C(=O)O)cc4)C(=O)[C@@H]3[C@@H]2c2ccccc2Cl)cc1 (relative stereo)	21.3
Cc1ccc(N2O[C@@H]3C(=O)N(c4ccc(C(=O)O)cc4)C(=O)[C@@H]3[C@@H]2c2ccccc2O)cc1	23.2
COc1ccc([C@H]2[C@H]3C(=O)N(c4ccc(C(=O)O)cc4)C(=O)[C@H]3ON2c2ccc(C)cc2)cc1 (relative stereo)	17.5
Cc1ccc(N2O[C@H]3C(=O)N(c4ccc(C(=O)O)cc4)C(=O)[C@H]3[C@@H]2c2ccc(Cl)cc2)cc1	20.4
COc1ccc([C@H]2[C@@H]3C(=O)N(c4ccc(C(=O)O)cc4)C(=O)[C@@H]3ON2c2ccc(C)cc2)cc1 (relative stereo)	18
O=C(O)c1ccc(N2C(=O)[C@H]3[C@H](ON(c4ccccc4)[C@H]3c3ccc(Cl)cc3)C2=O)cc1 (relative stereo)	19.7
O=C(O)c1ccc(N2C(=O)[C@H]3[C@H](ON(c4ccccc4)[C@H]3c3cccc(Cl)c3)C2=O)cc1 (relative stereo)	20.1
O=C(O)c1ccc(N2C(=O)[C@H]3[C@H](ON(c4ccccc4)[C@H]3c3ccc(O)cc3)C2=O)cc1 (relative stereo)	22.5
COc1ccccc1[C@H]1[C@H]2C(=O)N(c3ccc(C(=O)O)cc3)C(=O)[C@H]2ON1c1ccc(C)cc1 (relative stereo)	19.1

Structure (SMILES)	IC50 [nM]
O=C(O)c1ccc(N2C(=O)[C@@H]3[C@@H](ON(c4ccccc4)[C@H]3c3ccccc3)C2=O)cc1 (relative stereo)	24.4
O=C(O)c1ccc(N2C(=O)[C@H]3[C@H](ON(c4ccccc4)[C@H]3c3ccccc3O)C2=O)cc1 (relative stereo)	23.9
Cc1ccc(N2O[C@@H]3C(=O)N(c4ccc(C(=O)O)cc4)C(=O)[C@@H]3[C@@H]2c2ccccc2[N+](=O)[O-])cc1 (relative stereo)	24.3
O=C(O)c1ccc(N2C(=O)[C@@H]3[C@@H](ON(c4ccccc4)[C@H]3c3ccc(Cl)cc3)C2=O)cc1 (relative stereo)	20.9
O=C(O)c1ccc(N2C(=O)[C@H]3[C@H](ON(c4ccccc4)[C@H]3c3ccccc3Cl)C2=O)cc1 (relative stereo)	21.8
Cc1ccc(N2O[C@H]3C(=O)N(c4ccc(C(=O)O)cc4)C(=O)[C@H]3[C@@H]2c2ccccc2)cc1 (relative stereo)	22.4
COc1ccc([C@H]2[C@@H]3C(=O)N(c4ccc(C(=O)O)cc4)C(=O)[C@@H]3ON2c2ccccc2)cc1	19.1
COc1ccccc1[C@H]1[C@H]2C(=O)N(c3ccc(C(=O)O)cc3)C(=O)[C@H]2ON1c1ccccc1 (relative stereo)	19.2
Cc1ccc(N2O[C@@H]3C(=O)N(c4ccc(C(=O)O)cc4)C(=O)[C@@H]3[C@@H]2c2ccc([N+](=O)[O-])cc2)cc1 (relative stereo)	23.4
COc1cccc([C@H]2[C@@H]3C(=O)N(c4ccc(C(=O)O)cc4)C(=O)[C@@H]3ON2c2ccccc2)c1 (relative stereo)	20.5
O=C(O)c1ccc(N2C(=O)[C@H]3[C@H](ON(c4ccccc4)[C@H]3c3ccc([N+](=O)[O-])cc3)C2=O)cc1 (relative stereo)	25.8
Cc1ccc(N2O[C@H]3C(=O)N(c4ccc(C(=O)O)cc4)C(=O)[C@H]3[C@@H]2c2ccccc2O)cc1 (relative stereo)	24.1
Cc1ccc(N2O[C@@H]3C(=O)N(c4ccc(C(=O)O)cc4)C(=O)[C@@H]3[C@@H]2c2ccc(O)cc2)cc1 (relative stereo)	21.9
Cc1ccc(N2O[C@H]3C(=O)N(c4ccc(C(=O)O)cc4)C(=O)[C@H]3[C@@H]2c2ccccc2Cl)cc1 (relative stereo)	22.1
O=C(O)c1ccc(N2C(=O)[C@@H]3[C@@H](ON(c4ccccc4)[C@H]3c3cccc(Cl)c3)C2=O)cc1 (relative stereo)	21.8
O=C(O)c1ccc(N2C(=O)[C@H]3[C@H](ON(c4ccccc4)[C@H]3c3ccccc3)C2=O)cc1 (relative stereo)	23.9
Cc1ccc(N2O[C@@H]3C(=O)N(c4ccc(C(=O)O)cc4)C(=O)[C@@H]3[C@@H]2c2ccccc2)cc1 (relative stereo)	22.8
O=C(O)c1ccc(N2C(=O)[C@@H]3[C@@H](ON(c4ccccc4)[C@H]3c3ccc([N+](=O)[O-])cc3)C2=O)cc1 (relative stereo)	26.4
O=C(O)c1ccc(N2C(=O)[C@@H]3[C@@H](ON(c4ccccc4)[C@H]3c3ccc(O)cc3)C2=O)cc1 (relative stereo)	22.7
O=C(O)c1ccc(N2C(=O)[C@@H]3[C@@H](ON(c4ccccc4)[C@H]3c3ccccc3Cl)C2=O)cc1 (relative stereo)	22.4
Cc1ccc(N2O[C@@H]3C(=O)N(c4ccc(C(=O)O)cc4)C(=O)[C@@H]3[C@@H]2c2ccc(Cl)cc2)cc1 (relative stereo)	19.2
COc1ccc([C@H]2[C@H]3C(=O)N(c4ccc(C(=O)O)cc4)C(=O)[C@H]3ON2c2ccccc2)cc1 (relative stereo)	18.8

The compounds below were run on Mus musculus (assay: Antiamnesic activity in mouse assessed as inhibition of scopolamine-induced escape latency time at 5 mg/kg, ip measured on day 1 by Morris water maze test (reference value: 89.7 +/- 3.8 secs)). Details: route intraperitoneal.
Format: functional

Structure (SMILES)	Time [s]
COc1ccc([C@H]2[C@H]3C(=O)N(c4ccc(C(=O)O)cc4)C(=O)[C@H]3ON2c2ccc(C)cc2)cc1 (relative stereo)	85.2

What follows are compounds tested on Mus musculus (assay: Antiamnesic activity in mouse assessed as inhibition of scopolamine-induced escape latency time at 5 mg/kg, ip measured on day 4 by Morris water maze test (reference value: 78.7 +/- 5.7 secs)). Details: route intraperitoneal.
Format: functional

Structure (SMILES)	Time [s]
COc1ccc([C@H]2[C@H]3C(=O)N(c4ccc(C(=O)O)cc4)C(=O)[C@H]3ON2c2ccc(C)cc2)cc1 (relative stereo)	69.5
